Assay results: patent US12116357B2, “Heteroaryl-triazole and heteroaryl-tetrazole compounds as pesticides” (Bayer Aktiengesellschaft, priority 2018, dated 2024)

Tests used:
Assay type in all cases: in vivo
Ctenocephalides felis [1] = experiment: Ctenocephalides felis oral test; conditions: 48 h, 100 ppm in cattle blood, after 2 days
Description: (§1) • Solvent: dimethyl sulfoxide
To produce a suitable preparation of active compound, 10 mg of active compound are dissolved in 0.5 ml solvent, and the concentrate is diluted with cattle blood to the desired concentration.
Approximately 20 adult unfed cat fleas (Ctenocephalides felis) are placed in flea chambers. The blood chamber, sealed with parafilm on the bottom, are filled with cattle blood supplied with compound solution and placed on the gauze covered top of the flea chamber, so that the fleas are able to suck the blood. The blood chamber is heated to 37° C. whereas the flea chamber is kept at room temperature.
After 2 days mortality in % is determined. 100% means all the fleas have been killed; 0% means none of the fleas have been killed.

Rhipicephalus sanguineus = Rhipicephalus sanguineus in-vitro contact test, adult brown dog ticks
Description: (§2) 9 mg compound is solved in 1 ml acetone and diluted with acetone to the desired concentration. 250 μl of the test solution is filled in 25 ml glass test tubes and homogeneously distributed on the inner walls by rotation and tilting on a shaking device (2 h at 30 rpm). With a compound concentration of 900 ppm, an inner surface of 44.7 cm^2 and a homogeneous distribution, a dose of 5 μg/cm^2 is achieved.
(§3) After the solvent has evaporated, each test tube is filled with 5-10 adult brown dog ticks (Rhipicephalus sanguineus), closed with a perforated lid and incubated in a lying position at room temperature and relative humidity. After 48 hours efficacy is determined. The ticks are patted on the ground of the tubes and are incubated on a heating plate at 45-50° C. for at most 5 minutes. Immotile or uncoordinated moving ticks, which are not able to escape the heat by climbing upwards, are marked as dead or moribund.
An efficacy of 100% means all ticks are dead or moribund; 0% means no ticks are dead or moribund.

Spodoptera frugiperda = Spodoptera frugiperda spray test; conditions: 168 h
Description: (§4) • Solvent: 78.0 parts by weight acetone • 1.5 parts by weight dimethylformamide • Emulsifier: alkylarylpolyglycol ether
(§5) To produce a suitable preparation of active compound, 1 part by weight of active compound is mixed with the stated amount of solvents and is diluted with water, containing an emulsifier concentration of 1000 ppm, to the desired concentration. Further test concentrations are prepared by dilution with emulsifier containing water.
Maize (Zea mays) leaf sections are sprayed with a preparation of the active ingredient of the desired concentration. Once dry, the leaf sections are infested with fall armyworm larvae (Spodoptera frugiperda).
After 7 days mortality in % is determined. 100% means all caterpillars have been killed and 0% means none of the caterpillars have been killed.

[2] = system: Tetranychus urticae (OP-Resistant); experiment: Tetranychus urticae (OP-resistant) spray test; conditions: 144 h, after 6 days
Description: as §4, §5
French bean (Phaseolus vulgaris) leaf disks infected with all instars of the two spotted spidermite (Tetranychus urticae), are sprayed with a preparation of the active ingredient of the desired concentration.
After 6 days mortality in % is determined. 100% means all spider mites have been killed and 0% means none of the spider mites have been killed.

Nilaparvata lugens = Nilaparvata lugens spray test; conditions: 96 h
Description: (§6) • Solvent: 78.0 parts by weight of acetone • 1.5 parts by weight of dimethylformamide • Emulsifier: alkylarylpolyglycol ether
as §5
Rice plants (Oryza sativa) are sprayed with a preparation of the active ingredient of the desired concentration and the plants are infested with the brown planthopper (Nilaparvata lugens).
After 4 days mortality in % is determined. 100% means all planthoppers have been killed and 0% means none of the planthoppers have been killed.

Ctenocephalides felis [3] = experiment: Ctenocephalides felis in-vitro contact test, adult cat flea; conditions: 5 μg/cm^2, after 48 hours, read-out: efficacy (fleas dead or moribund)
Description: as §2
as §3, with “cat fleas (Ctenocephalides felis),” for “brown dog ticks (Rhipicephalus sanguineus),”, “fleas” for “ticks”, “fleas,” for “ticks,”
An efficacy of 100% means all fleas are dead or moribund; 0% means no fleas are dead or moribund.

Myzus persicae [4] = experiment: Myzus persicae oral test; conditions: 120 h
Description: • Solvent: 100 parts by weight acetone
To produce a suitable preparation of active compound, 1 part by weight of active compound is mixed with the stated amount of solvent, and the concentrate is diluted with water to the desired concentration. 50 μl compound solution is filled in microtiter plates and 150 μl IPL41 insect medium (33%+15% sugar) is added to obtain a total volume of 200 μl per well. Afterwards the plates are sealed with parafilm through which a mixed population of the green peach aphid (Myzus persicae) can suck on the compound preparation.
(§7) After 5 days mortality in % is determined. 100% means all aphids have been killed and 0% means none of the aphids have been killed.

Phaedon cochleariae = Phaedon cochleariae spray test; conditions: 168 h, after 7 days
Description: as §6, §5
Chinese cabbage (Brassica pekinensis) leaf disks are sprayed with a preparation of the active ingredient of the desired concentration. Once dry, the leaf disks are infested with mustard beetle larvae (Phaedon cochleariae).
After 7 days mortality in % is determined. 100% means all beetle larvae have been killed and 0% means none of the beetle larvae have been killed.

Boophilus microplus = Boophilus microplus injection test; conditions: Rhipicephalus microplus, 168 h, 20 μg/animal, egg deposition after 7 days, read-out: efficacy (infertile eggs)
Description: as §1
To produce a suitable preparation of active compound, 10 mg of active compound are dissolved in 0.5 ml solvent, and the concentrate is diluted with solvent to the desired concentration.
Five adult engorged female ticks (Boophilus microplus) are injected with 1 μl compound solution into the abdomen. The ticks are transferred into replica plates and incubated in a climate chamber.
After 7 days egg deposition of fertile eggs is monitored. Eggs where fertility is not visible are stored in a climate chamber till hatching after about 42 days. An efficacy of 100% means all eggs are infertile; 0% means all eggs are fertile.

[5] = system: Musca domestica strain WHO-N; experiment: Musca domestica test (surface treatment & contact assay); conditions: 24 hours after contact, read-out: efficacy (mortality); for mortality at 4 mg/m2: surface concentration 4 mg/m^2, 30 min exposure; for mortality at 20 mg/m2: surface concentration 20 mg/m^2, 30 min exposure
Description: (§8) • Solvent: Aceton+2000 ppm rapeseed oil methyl ester (RME)
(§9) In order to produce a sufficient, active ingredient containing solution it is necessary to solve the test compound in the solvent-mix (acetone at 2 mg/ml/RME 2000 ppm). This solution is pipetted onto a glazed tile and after evaporation of the acetone, adult flies of the species Musca domestica strain WHO-N are placed onto the dried surface. The exposure time is 30 minutes.
(§10) Mortality in percent (%) is determined 24 hours after contact of the insects to the treated surface. 100% mortality means that all tested insects are dead, whereas 0% means that no insect died.

[6] = system: Aedes aegypti strain MONHEIM; experiment: Aedes aegypti test (surface treatment & contact assay); conditions: 24 hours after contact, read-out: efficacy (mortality); for mortality at 4 mg/m2: surface concentration 4 mg/m^2, 30 min exposure; for mortality at 20 mg/m2: surface concentration 20 mg/m^2, 30 min exposure
Description: as §8
as §9, with “mosquitoes” for “flies”, “Aedes aegypti” for “Musca domestica”, “MONHEIM” for “WHO-N”
as §10

[7] = system: Anopheles funestus strain FUMOZ-R; experiment: Anopheles funestus test (surface treatment & contact assay); conditions: 24 hours after contact, read-out: efficacy (mortality); for mortality at 4 mg/m2: surface concentration 4 mg/m^2, 30 min exposure; for mortality at 20 mg/m2: surface concentration 20 mg/m^2, 30 min exposure
Description: as §8
as §9, with “mosquitoes” for “flies”, “Anopheles funestus” for “Musca domestica”, “FUMOZ-R (Hunt et al., Med. Vet. Entomol. 2005 September; 19(3): 271-275)” for “WHO-N”
as §10

[8] = system: Culex quinquefasciatus strain P00; experiment: Culex quinquefasciatus test (surface treatment & contact assay); conditions: 24 hours after contact, read-out: efficacy (mortality); for mortality at 4 mg/m2: surface concentration 4 mg/m^2, 30 min exposure; for mortality at 20 mg/m2: surface concentration 20 mg/m^2, 30 min exposure
Description: as §8
as §9, with “mosquitoes” for “flies”, “Culex quinquefasciatus” for “Musca domestica”, “P00” for “WHO-N”
as §10

Nezara viridula = Nezara viridula spray test; conditions: 96 h
Description: as §6
as §5, with “solvent,” for “solvents”, “and the concentrate” for “and”
Barley plants (Hordeum vulgare) infested with larvae of the southern green stink bug (Nezara viridula) are sprayed with a test solution containing the desired concentration of the active ingredient.
After 4 days mortality in % is determined. 100% means all the stink bugs have been killed; 0% means none of the stink bugs have been killed.

Myzus persicae [9] = experiment: Myzus persicae spray test; conditions: 120 h
Description: as §4, §5
Chinese cabbage (Brassica pekinensis) leaf disks infected with all instars of the green peach aphid (Myzus persicae), are sprayed with a preparation of the active ingredient of the desired concentration.
as §7

SMILES | mortality at 100 ppm (Ctenocephalides felis [1]) | efficacy (ticks dead or moribund) (Rhipicephalus sanguineus; 1 μg/cm^2, after 48 hours) | efficacy (ticks dead or moribund) (Rhipicephalus sanguineus; 5 μg/cm^2, after 48 hours) | mortality at 500 g/ha (Spodoptera frugiperda) | mortality at 500 g/ha [2] | mortality at 500 g/ha (Nilaparvata lugens) | pest or weed control at 5 µg/cm2 (Ctenocephalides felis [3]) | mortality at 4 ppm (Myzus persicae [4]) | mortality at 20 ppm (Myzus persicae [4]) | mortality at 500 g/ha (Phaedon cochleariae) | pest or weed control at 0.02 mg (Boophilus microplus) | mortality at 4 mg/m2 [5] | mortality at 20 mg/m2 [5] | mortality at 4 mg/m2 [6] | mortality at 20 mg/m2 [6] | mortality at 20 mg/m2 [7] | mortality at 20 mg/m2 [8] | mortality at 500 g/ha (Nezara viridula) | mortality at 500 g/ha (Myzus persicae [9]) | further results
CCOCN(C(=O)c1cc(Cl)cc(C(F)(F)F)c1)C(C)c1ncnn1-c1ncccn1 (stereo not drawn) [Example I-013, 3-Chloro-N-(ethoxymethyl)-N-{1-[1-(pyrimidin-2-yl)-1H-1,2,4-triazol-5-yl]ethyl}-5-(trifluoromethyl)benzamide] | 100% | 100% | 100% | 100% | 80% | 100% | 100% | 100% | 100% | 100% | 100% | – | – | – | – | – | – | – | – | –
CSCCN(C(=O)c1cc(Cl)cc(C(F)(F)F)c1)C(C)c1ncnn1-c1ncccn1 (stereo not drawn) [Example I-017] | 100% | 80% | 100% | 100% | – | 100% | 100% | 100% | 100% | 100% | 100% | 90 to 100% | 90 to 100% | 80 to 100% | 90 to 100% | 85 to 100% | 90 to 100% | 100% | – | mortality at 4 mg/m2 [7]: 85 to 100%; mortality at 4 mg/m2 [8]: 85 to 100%
CON(C(=O)c1cc(Cl)cc(C(F)(F)F)c1)C(C)c1ncnn1-c1ncccn1 (stereo not drawn) [Example I-026] | 100% | – | – | 100% | 90% | – | – | 100% | 100% | 100% | 100% | – | – | – | – | – | – | 100% | – | –
CCON(C(=O)c1cc(Cl)cc(C(F)(F)F)c1)C(C)c1ncnn1-c1ncccn1 (stereo not drawn) [Example I-027] | 100% | 100% | – | – | 80% | – | 100% | 100% | 100% | 100% | 100% | – | – | – | – | 85 to 100% | – | 100% | – | mortality at 4 mg/m2 [7]: 85 to 100%
CON(C(=O)c1cccc(C(F)(F)F)c1)C(C)c1ncnn1-c1ncccn1 (stereo not drawn) [Example I-028] | – | 80% | 100% | – | – | 100% | – | – | – | – | 100% | – | – | – | – | – | – | 100% | – | –
CC(c1ncnn1-c1ncccn1)N(Cc1ccc(Cl)nc1)C(=O)c1cc(Cl)cc(C(F)(F)F)c1 (stereo not drawn) [Example I-030] | 100% | – | – | 100% | – | 100% | 90% | 100% | – | – | 100% | 90 to 100% | 90 to 100% | 80 to 100% | 90 to 100% | 85 to 100% | 90 to 100% | 100% | 100% | –
CSCCN(C(=O)c1cc(Cl)cc(C(F)(F)F)c1)C(C)c1ncnn1-c1ccc(C#N)cn1 (stereo not drawn) [Example I-033] | – | – | – | 100% | – | – | 100% | 100% | – | – | – | 90 to 100% | 90 to 100% | 80 to 100% | 90 to 100% | 85 to 100% | 90 to 100% | 100% | 90% | –
CSCCN(C(=O)c1cc(C(F)(F)F)cc(C(F)(F)F)c1)C(C)c1ncnn1-c1ccc(C#N)cn1 (stereo not drawn) [Example I-034] | – | – | – | 100% | – | – | 100% | 100% | – | – | – | 90 to 100% | 90 to 100% | – | 90 to 100% | 85 to 100% | 90 to 100% | 100% | 100% | mortality at 4 mg/m2 [8]: 85 to 100%
